For 69 molecules, IC50 results are on record in PubChem BioAssay AID1361 (SRMLSC, 2008).

Usually IC50 stands for the midpoint of a concentration-inhibition curve.

Active and inactive are the calls of the source. No rule for the calls is given here.

The assay can be described thus: mitochondrial fusion inhibitors, confirmation, cell-based, chemical genetic, wild-type and mutant (AID 1361). The note with it: Cell-based mitochondrial fusion phenotype, imaging.
Setting [1] is: mutant cells, measured here: mutant cell line IC50.

For `CC/C(=C(/CC)c1ccc(O)cc1)c1ccc(O)cc1`, the IC50 is 23.8 µM (WT cells) and greater than 25 µM under setting [1].
Taken in the same sequence, the figures for `CC1(C(=O)N(Cc2ccccc2)Cc2ccccc2)CC1(Br)Br` (stereo not drawn) were 15.7 µM and greater than 25 µM.
Regarding `COc1cc2c(cc1NC(=O)CSc1nc3ccccc3[nH]1)oc1ccccc12`, the IC50 is 11.2 µM (WT cells) and greater than 25 µM under setting [1].
Taken in the same sequence, the figures for `Cc1nc2c(ccc3nc(NC(=O)Cc4ccccc4)sc32)s1` were 12.4 µM and greater than 25 µM.
Take `CC(C)(C)CC(C)(C)NC(=O)Nc1cccc([N+](=O)[O-])c1`: the IC50 reads like this: (WT cells) > 25 µM (inactive); under setting [1], greater than 25 µM.
The matching figures for `O=C(CSc1nc2cc(Cl)ccc2o1)NCCc1ccccc1`: > 25 µM (inactive) and greater than 25 µM.
The matching figures for `Cc1ncsc1C(=O)Nc1nc2c(s1)CC(C)CC2` (stereo not drawn): > 25 µM (inactive) and greater than 25 µM.
Taken in the same sequence, the figures for `C/C(N)=C(/C#N)C(=O)CSc1nnnn1-c1ccccc1` were > 25 µM (inactive) and greater than 25 µM.
Take `N#CC1=C(N)NC(SCc2ccc(Br)cc2)=C(C#N)C12CCCCC2`: the IC50 (WT cells) is > 25 µM (inactive) and the IC50 under setting [1] is greater than 25 µM.
The matching figures for `CC1=C(C#N)C(NC(=O)c2ccc(C)cc2)(C(F)(F)F)C(=O)N1` (stereo not drawn): > 25 µM (inactive) and greater than 25 µM.
The matching figures for `CCCn1nnc(NC(=O)c2ccc(-c3cccc(Cl)c3)o2)n1`: > 25 µM (inactive) and greater than 25 µM.
Taken in the same sequence, the figures for `COC(=O)c1ccc(/C=C(\C#N)c2nc3ccccc3s2)cc1` were > 25 µM (inactive) and greater than 25 µM.
As for `COc1cc(CNCCO)cc(Br)c1OCc1ccccc1Cl`, the IC50 is > 25 µM (inactive) (WT cells) and 23.8 µM under setting [1].
Regarding `Cc1cc(NC(=O)C2CCCCC2)nc2c1c(=O)oc1ccccc12`, the IC50 by setting is: (WT cells) 19.4 µM; under setting [1], 23.8 µM.
Taken in the same sequence, the figures for `O=C(Oc1cccnc1)c1ccc(Cl)c(Cl)c1` were > 25 µM (inactive) and greater than 25 µM.
Taken in the same sequence, the figures for `Cc1ccc(S(=O)(=O)c2nc(Nc3ccccc3)sc2Cl)cc1` were 14.1 µM and greater than 25 µM.
The matching figures for `Cc1nc(N2CCCCC2C)c2c(C)c(C(=O)Nc3cccc(C(F)(F)F)c3)sc2n1` (stereo not drawn): 10.6 µM and greater than 25 µM.
For the molecule `COc1ccc(S(=O)(=O)N2CCC[C@H]2C(=O)NC2=NCCS2)cc1`, the IC50 runs as follows: (WT cells) > 25 µM (inactive); under setting [1], greater than 25 µM.
The matching figures for `Cc1cc(C)n(CC(O)Cn2c3ccc(Cl)cc3c3cc(Cl)ccc32)c(=O)n1` (stereo not drawn): 16.6 µM and greater than 25 µM.
Taken in the same sequence, the figures for `CC1CC(C)CN(C(=O)c2cc3cc(Br)cc(Br)c3o2)C1` (stereo not drawn) were 13.7 µM and 22.5 µM.
Taken in the same sequence, the figures for `FC(F)(F)c1cc(-c2ccco2)nc(NCc2ccc(Cl)cc2)n1` were 14.8 µM and greater than 25 µM.
As for `C/C(=N\Nc1cc(-c2ccccc2)nc(-c2ccccc2)n1)c1ccc(O)c(C)c1`, the IC50 reads like this: (WT cells) 3.31 µM; under setting [1], greater than 25 µM.
On to `Cc1oc(-c2ccccc2)nc1CN1C(=O)CN=C(c2ccccc2)c2ccccc21`, for which the IC50 is > 25 µM (inactive) (WT cells) and greater than 25 µM under setting [1].
The matching figures for `O=C(c1ccc(Cl)c(Cl)c1)c1cnc(Nc2ccccc2)s1`: > 25 µM (inactive) and greater than 25 µM.
Taken in the same sequence, the figures for `O=C(CNC(=S)N(Cc1ccccc1)Cc1ccccc1F)NCCc1ccccc1` were 20.1 µM and greater than 25 µM.
The matching figures for `O=C(COC(=O)c1cc(-c2cccc(Br)c2)nc2ccccc12)NCC1CCCO1` (stereo not drawn): 19.8 µM and greater than 25 µM.
With `CC1(C)CC(=O)C(C=NCc2cccnc2)=C(O)C1`, the IC50 (WT cells) was > 25 µM (inactive) and the IC50 under setting [1] is greater than 25 µM.
The matching figures for `COCCN(C(=S)Nc1cccc(C)c1)C(C)c1cccs1` (stereo not drawn): 23.7 µM and greater than 25 µM.
The matching figures for `CCCc1c(C)[nH]c2ccc(NC(C)=O)cc2c1=O`: > 25 µM (inactive) and greater than 25 µM.
The matching figures for `Cc1ccc(C2CN(C)C3(C(=O)Nc4ccccc43)C23COc2ccccc2C3=O)cc1` (stereo not drawn): 11 µM and 23.7 µM.
Consider `Clc1cccc(NCc2nnc(SCc3ccc(Cl)cc3Cl)o2)c1`, for which the IC50 is, setting by setting: (WT cells) 10.6 µM; under setting [1], greater than 25 µM.
The matching figures for `COC(=O)CN(c1ccc2c(c1)OCCO2)S(=O)(=O)c1ccccc1`: > 25 µM (inactive) and greater than 25 µM.
Taken in the same sequence, the figures for `CCc1cc(-c2n[nH]c(=S)n2CC(C)C)cs1` were > 25 µM (inactive) and greater than 25 µM.
The matching figures for `Cc1nc(N2CCC(C)CC2)c2c(C)c(C(=O)Nc3cc(F)ccc3C)sc2n1`: 19.7 µM and greater than 25 µM.
With `Cc1cc(C)cc(NC(=S)Nc2cccc3cnccc23)c1`, the IC50 by setting is: (WT cells) > 25 µM (inactive); under setting [1], greater than 25 µM.
Taken in the same sequence, the figures for `Cc1ccc(-c2ncccc2OC(=O)C23CC4CC(CC(C4)C2)C3)cc1` were 18.8 µM and greater than 25 µM.
Taken in the same sequence, the figures for `CC1CCCN(c2nc(-c3cccnc3)nc3scc(-c4ccccc4)c23)C1` (stereo not drawn) were 11.8 µM and greater than 25 µM.
Taken in the same sequence, the figures for `N#CC1=C(N)C2=CCCC[C@H]2[C@H](c2ccc(Br)cc2)C1(C#N)C#N` were 4.48 µM and 7.07 µM.
Regarding `COc1ccc(NC(=O)N2c3ccccc3CC2C)cc1OC` (stereo not drawn), the IC50 (WT cells) is > 25 µM (inactive) and the IC50 under setting [1] is greater than 25 µM.
The matching figures for `COC(=O)c1ccn(C(=O)c2ccc(Cl)cc2)n1`: > 25 µM (inactive) and greater than 25 µM.
The matching figures for `O=C(c1ccccc1)c1nnc(-c2ccncc2)o1`: > 25 µM (inactive) and greater than 25 µM.
Taken in the same sequence, the figures for `COC(=O)c1c(NC(=O)CN2CCC3(O)CCCCC3C2c2cc(OC)ccc2OC)sc(C)c1C` (stereo not drawn) were 8.13 µM and greater than 25 µM.
Turning to `NC(=O)c1ccc(NC(=O)CCCN2C(=O)c3ccccc3C2=O)cc1`, the IC50 is > 25 µM (inactive) (WT cells) and greater than 25 µM under setting [1].
The matching figures for `CC1CCCN(C(=O)N2c3ccccc3Sc3ccccc32)C1` (stereo not drawn): 18.8 µM and greater than 25 µM.
Take `Cc1cccc(N2CCN(C(=O)c3ccc(Cl)c(S(=O)(=O)NCc4ccco4)c3)CC2)c1C`: the IC50 runs as follows: (WT cells) > 25 µM (inactive); under setting [1], greater than 25 µM.
The matching figures for `O=C(NC(=S)Nc1ccccc1N1CCCCC1)c1ccco1`: > 25 µM (inactive) and 23 µM.
Taken in the same sequence, the figures for `CCOC(=O)/C(=C\c1cccnc1)C(=O)c1cc(C(C)=O)c(Nc2ccccc2)s1` were 4.87 µM and greater than 25 µM.
Turning to `Cc1nn(-c2ccccc2)c2sc(C(=O)N(Cc3ccco3)C(C)C(=O)NC(C)(C)C)cc12` (stereo not drawn), the 50% inhibitory concentration (IC50) is, setting by setting: (WT cells) 7.45 µM; under setting [1], 19.6 µM.
Taken in the same sequence, the figures for `CCCC1(CCC)NC(=O)N(CC(=O)Nc2cccc(OC)c2)C1=O` were > 25 µM (inactive) and greater than 25 µM.
The matching figures for `O=C(N/C=N/OCc1ccc(Cl)cc1Cl)NOCc1ncc(C(F)(F)F)cc1Cl`: 16 µM and greater than 25 µM.
The matching figures for `Cc1cccc2nc(-c3ccccc3)nc(N3CCC(O)(c4ccc(Cl)cc4)CC3)c12`: 4.04 µM and greater than 25 µM.
For `FC(F)(F)c1cnc(N2CCC(=NOCc3ccc(Cl)cc3)CC2)c(Cl)c1`, the IC50 (WT cells) was 13.7 µM and the half-inhibitory concentration (IC50) under setting [1] was greater than 25 µM.
The matching figures for `FC(F)(F)c1cc(-c2ccccc2)nc(NCc2cccs2)n1`: 18.8 µM and greater than 25 µM.
Taken in the same sequence, the figures for `CCc1ccccc1NC(=O)/C(=C/c1ccccc1)c1ccccc1` were 17.4 µM and greater than 25 µM.
For the molecule `COc1ccc(CCN(Cc2cc3cc(C)cc(C)c3nc2Cl)C(=O)C2CC2)cc1`, the IC50 is, setting by setting: (WT cells) 7.6 µM; under setting [1], greater than 25 µM.
Taken in the same sequence, the figures for `CCOc1ccc2c(c1)C(C)=CC(C)(C)N2S(=O)(=O)c1ccc(C)cc1` were 13.7 µM and 23.2 µM.
On to `COc1ccc(-c2nnc(SCC(=O)c3cccs3)o2)c(OC)c1`, for which the IC50 (WT cells) was > 25 µM (inactive) and the IC50 under setting [1] is greater than 25 µM.
For `O=C(Nc1nnc(C2CC2)s1)c1cc(-c2ccccc2)nn1-c1ccccc1`, the IC50 is 8.41 µM (WT cells) and 17 µM under setting [1].
Taken in the same sequence, the figures for `COc1ccccc1-n1c(SCC(=O)c2ccc(O)cc2O)nc2cc([N+](=O)[O-])ccc21` were 6.02 µM and greater than 25 µM.
The matching figures for `O/N=C(\c1ccc(Cl)cc1Cl)c1ncc(C(F)(F)F)cc1Cl`: 20.9 µM and greater than 25 µM.
The matching figures for `Clc1ccc(C2=Nn3c(nnc3-c3cc(-c4ccccc4)n[nH]3)SC2)cc1`: > 25 µM (inactive) and greater than 25 µM.
Consider `Cc1ccc(Cl)cc1N1CCN(CC(=O)NC2CCCc3ccccc32)CC1` (stereo not drawn), for which the IC50 was 11.6 µM (WT cells) and 23.7 µM under setting [1].
The matching figures for `CC(C)c1ccc(OCC(O)Cn2cnc3ccccc32)cc1` (stereo not drawn): > 25 µM (inactive) and greater than 25 µM.
For the molecule `Cc1cccc(N2CCN(C(c3ccccc3)c3nnnn3C(C)(C)C)CC2)c1C` (stereo not drawn), the IC50 reads like this: (WT cells) 9.14 µM; under setting [1], greater than 25 µM.
The matching figures for `Cc1ncsc1C(=O)N1N=C2/C(=C/c3ccccc3)CCCC2C1c1ccccc1` (stereo not drawn): 10.3 µM and greater than 25 µM.
The matching figures for `Cc1ccc(-n2cccc2C(=S)N=P(N(C)C)(N(C)C)N(C)C)cc1`: 9.32 µM and greater than 25 µM.
`COCC(C)n1c(SCc2ccc(OC)c(F)c2)nc2ccccc2c1=O` (stereo not drawn): the half-maximal inhibitory concentration (IC50) was 15.3 µM (WT cells) and greater than 25 µM under setting [1].
The matching figures for `Cc1ccc(C(NC(=O)NC(C)c2ccccc2)C(Cl)(Cl)Cl)cc1F` (stereo not drawn): 10.9 µM and greater than 25 µM.
For `COC(=O)CP(=O)(c1ccccc1)c1ccccc1`, the IC50 by setting is: (WT cells) > 25 µM (inactive); under setting [1], greater than 25 µM.
